In PubChem BioAssay AID1963434 (Molecular Pharmacology Branch, DTP, NCI, 2024):

System: 755483-174-R-J1-PDC complex spheroid growth, percent test/control
Experiment: Anticancer human tumor 755483-174-R-J1-PDC patient-derived rhabdomyosarcoma cell line growth inhibition [Asc]
Conditions: for IC50: curve of first compound; for viability, T/C: stronger effect = lower value
Protocol: Multicellular complex tumor spheroid response to apoptosis pathway targeting inhibitors Alrizomadlin, Pelcitoclax, and Dasminapant in combination with a variety of drugs and investigational agents in selected tumor cell lines
The MDM2 inhibitor alrizomadlin, the Bcl-2/Bcl-xL inhibitor pelcitoclax, and the IAPs inhibitor dasminapant were evaluated both individually and in combination with standard of care and investigational anticancer small molecules within a complex spheroid model of solid tumors. . Complex spheroids include a stromal component modeled by human endothelial cells (HUVEC) and fibroblasts modeled by human mesenchymal stem cells (MSCs). The concentration ranges selected for each drug and investigational agent were based upon clinically achievable concentrations if the clinical Cmax of the agent was known.
Compounds. The drugs and investigational agents: alrizomadlin (APG-115; NSC831270), pelcitoclax (APG-1252; NSC835773), dasminapant (APG-1387;NSC834197), TAK-243 (NSC785004), copanlisib (NSC809693), olaparib (NSC753686), talazoparib (NSC767125), cobimetinib (NSC 768068), eltanexor (KPT-8602, NSC 794443), abemaciclib (NSC 768073), sotorasib (NSC818433), adagrasib (NSC 831453), MRTX-1133 (NSC 836407), Iadademestat (ORY1001, NSC 806812), and RMC-4630 (NSC839698), were obtained from the NCI Developmental Therapeutics Program Chemical Repository. The FDA-approved anticancer drug set is available from the Developmental Therapeutics Program at https://dtp.cancer.gov/organization/dscb/obtaining/available plates.htm. […] The stock solutions were prepared in dimethyl sulfoxide (DMSO, Sigma-Aldrich, St. Louis, MO, cat. D2650) at 800-fold the tested concentration and stored at -70 degrees C prior to their use. All drugs and investigational agents were tested over a range starting from a high concentration at or near the clinical Cmax and decreasing in half-log increments. If the clinical Cmax for an agent had not been determined, the highest concentration tested was 10 microM.
The patient-derived cancer (PDC) cell lines include five colon adenocarcinomas: 186277-243-T-J2-PDC, 616215-338-R-J1-PDC, 439559-082-T-J2-PDC, 463943-066-T-J2-PDC, and 519858-162-T-J1-PDC; three pancreatic carcinomas: 323965-272-R-J2-PDC, 521955-158-R6-J3-PDC, and 521955-158-R2-J5-PDC; two uterine sarcomas: 327498-152-R-J2-PDC and 993429-296-R-J1-PDC; two rhabdomyosarcomas: 755483-174-R-J1-PDC and 772245-204-R-J1-PDC; two soft tissue sarcomas: 126254-015-R-J1-PDC and 494315-158-R-J1-PDC; two malignant fibrous histiocytomas: 317291-083-R-J1-PDC and 596521-263-R-J1-PDC; two breast carcinomas: 171881-019-R-J1-PDC and 885512-296-R-J2-PDC; and one ovarian carcinoma: 6556581-035-R-J-PDC were obtained from the NCI PDMR, (https://pdmr.cancer.gov). The established cell lines HSSY-2 synovial sarcoma (RRID:CVCL 8719), SYO-1 synovial sarcoma (RRID:CVCL_7146), MPNST malignant peripheral neural sheath tumor were obtained from the Sloan Kettering Institute. The following established cell lines were purchased from the American Type Culture Collection (ATCC, Manassas, VA), Sor the received from the NCI repository:, PANC-1 pancreatic carcinoma (CRL-1469, RRID:CVCL_0480), OVCAR-5 ovarian carcinoma (RRID:CVCL_1628), OVCAR-8 ovarian carcinoma (RRID:CVCL_1629), , MCF-7 breast carcinoma (CRL-12584, RRID:CVCL_0031), MDA-MB-231 breast carcinoma (CRL-12532, RRID:CVCL_0062), NCI-H1876 small cell lung carcinoma (CRL-5902, RRID:CVCL_1503), NCI-H510A small cell lung carcinoma (HTB-184, RRID:CVCL_1565), NCI-H1417 (CRL-5869, RRID:CVCL_1469), and NCI-H196 small cell lung carcinoma (CRL-5823, RRID:CVCL_1509). Dr. Peter Houghton (Greehey Children's Cancer Research Institute, University of Texas Health Science Center, San Antonio, TX) provided Rh-18 rhabdomyosarcoma (RRID:CVCL_1659). Pooled donor human umbilical vein endothelial cells (HUVEC, Lonza, cat. CC-2519) and human mesenchymal stem cells (hMSC, Lonza, cat. PT-2501) were purchased from Lonza (Walkersville, MD).
Cell Culture. […]
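Note: spheroids exposed to compounds for seven days before readout.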

- IC50 (second compound 0.1 µM): 21.6 nM
- IC50 (second compound 0.316 µM): < 3.16 nM
- IC50 (second compound 1 µM): < 3.16 nM
- IC50 (second compound 3.16 µM): < 3.16 nM
- IC50 (second compound 10 µM): < 3.16 nM
Compound: O=C(c1ccc(F)c(F)c1Nc1ccc(I)cc1F)N1CC(O)([C@@H]2CCCCN2)C1 + Cc1c(S(C)(=O)=O)c(-c2cc(F)cc(N3CCN(c4ccc(NS(=O)(=O)c5ccc(NC(CCN6CCC(C(=O)OCCCP(=O)(O)O)CC6)CSc6ccccc6)c(S(=O)(=O)C(F)(F)F)c5)cc4)CC3)c2)c(-c2ccc(Cl)cc2)n1C(C)C
- viability, T/C (second compound 0.1 µM, first compound 0.00316 µM): 46.3%
- viability, T/C (second compound 0.1 µM, first compound 0.01 µM): 71.5%
- viability, T/C (second compound 0.1 µM, first compound 0.0316 µM): 33.4%
- viability, T/C (second compound 0.1 µM, first compound 0.1 µM): 45.1%
- viability, T/C (second compound 0.1 µM, first compound 0.316 µM): 30.7%
- viability, T/C (second compound 0.1 µM, first compound 1 µM): 4.92%
- viability, T/C (second compound 0.316 µM, first compound 0.00316 µM): 41.9%
- viability, T/C (second compound 0.316 µM, first compound 0.01 µM): 42%
- viability, T/C (second compound 0.316 µM, first compound 0.0316 µM): 44.8%
- viability, T/C (second compound 0.316 µM, first compound 0.1 µM): 43.7%
- viability, T/C (second compound 0.316 µM, first compound 0.316 µM): 22%
- viability, T/C (second compound 0.316 µM, first compound 1 µM): 6.11%
- viability, T/C (second compound 1 µM, first compound 0.00316 µM): 39.2%
- viability, T/C (second compound 1 µM, first compound 0.01 µM): 44.3%
- viability, T/C (second compound 1 µM, first compound 0.0316 µM): 42.1%
- viability, T/C (second compound 1 µM, first compound 0.1 µM): 36.9%
- viability, T/C (second compound 1 µM, first compound 0.316 µM): 24.6%
- viability, T/C (second compound 1 µM, first compound 1 µM): 4.55%
- viability, T/C (second compound 3.16 µM, first compound 0.00316 µM): 38.9%
- viability, T/C (second compound 3.16 µM, first compound 0.01 µM): 25%
- viability, T/C (second compound 3.16 µM, first compound 0.0316 µM): 26.6%
- viability, T/C (second compound 3.16 µM, first compound 0.1 µM): 29.5%
- viability, T/C (second compound 3.16 µM, first compound 0.316 µM): 15.3%
- viability, T/C (second compound 3.16 µM, first compound 1 µM): 3.65%
- viability, T/C (second compound 10 µM, first compound 0.00316 µM): 34.5%
- viability, T/C (second compound 10 µM, first compound 0.01 µM): 42%
- viability, T/C (second compound 10 µM, first compound 0.0316 µM): 32.1%
- viability, T/C (second compound 10 µM, first compound 0.1 µM): 29.1%
- viability, T/C (second compound 10 µM, first compound 0.316 µM): 11.1%
- viability, T/C (second compound 10 µM, first compound 1 µM): 2.13%
